Nine molecules from US20250320213A1, “Nitrogen-Containing Heterocyclic Compounds” (Pfizer Inc., priority 2024, published 2025) can be followed below.

pEC50: −log10 of the molar value.

The first test has as its target T1, STAT6 (Homo sapiens, UniProt P42226).
T1 construct: stably transfected HaCaT keratinocyte cell line, which expresses NanoLuc luciferase reporter gene under the transcriptional control of the STAT6 responsive promoter; endogenous in cells; host or cells: HaCaT keratinocyte reporter cell line (stably transfected with a NanoLuc reporter)
T1 sequence (P42226 1-847): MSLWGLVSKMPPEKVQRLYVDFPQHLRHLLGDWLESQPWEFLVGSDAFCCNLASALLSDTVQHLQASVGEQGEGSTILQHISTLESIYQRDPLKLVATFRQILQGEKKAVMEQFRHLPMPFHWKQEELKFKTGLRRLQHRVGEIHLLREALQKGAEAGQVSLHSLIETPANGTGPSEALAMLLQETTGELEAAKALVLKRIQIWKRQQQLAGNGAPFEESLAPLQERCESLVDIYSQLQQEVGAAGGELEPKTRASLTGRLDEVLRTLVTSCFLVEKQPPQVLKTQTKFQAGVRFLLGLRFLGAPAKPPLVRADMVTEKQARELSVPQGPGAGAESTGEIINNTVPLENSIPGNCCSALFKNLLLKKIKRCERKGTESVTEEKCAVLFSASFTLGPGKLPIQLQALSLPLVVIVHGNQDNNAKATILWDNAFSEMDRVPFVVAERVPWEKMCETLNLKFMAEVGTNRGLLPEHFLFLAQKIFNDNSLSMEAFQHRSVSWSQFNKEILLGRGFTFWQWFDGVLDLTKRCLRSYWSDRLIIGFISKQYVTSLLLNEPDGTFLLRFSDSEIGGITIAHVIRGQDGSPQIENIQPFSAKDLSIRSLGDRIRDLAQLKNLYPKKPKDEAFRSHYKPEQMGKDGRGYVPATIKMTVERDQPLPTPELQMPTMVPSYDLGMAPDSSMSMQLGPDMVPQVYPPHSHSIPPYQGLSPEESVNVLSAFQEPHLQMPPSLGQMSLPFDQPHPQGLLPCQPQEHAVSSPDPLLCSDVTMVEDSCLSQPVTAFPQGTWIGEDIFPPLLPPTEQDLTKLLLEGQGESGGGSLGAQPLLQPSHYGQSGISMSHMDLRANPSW
Briefly: STAT6 Reporter Luciferase Assay (IL-13 stimulated HaCaT keratinocyte NanoLuc reporter cells). The following applies: IL-13 stimulated HaCaT STAT6 NanoLuc reporter cells; read-out: Reporter EC50. The format is cell-based. The method, then: Pharmacological measurements of STAT6 transcriptional activity through the IL-13-IL-13 receptor/IL-4 receptor pathway were made with a stably transfected HaCaT keratinocyte cell line, which expresses NanoLuc luciferase reporter gene under the transcriptional control of the STAT6 responsive promoter for IL-13Ra2. The readout of the STAT6 activity utilized Promega Nano-Glo Luciferase assay kit.
The reporter cells were cultured in a growth media comprised of DMEM High Glucose, no calcium and no glutamine, 10% heat inactivated fetal bovine serum (HI FBS), 1% 100× Glutamax, and 100 U/mL Penicillin-Streptomycin (units of penicillin in 1 mL of streptomycin). Seven thousand cells were plated in 25 microliter (μL) per well in a 384-well, white bottom, tissue culture plate. Cells were cultured overnight at 37° C. The next day, test compounds (solubilized and serially diluted in DMSO, in an 11 point, 4-fold dilution series in duplicate) were spotted, 60 nanoliters (nL) per well, into a 384 well v-bottom polypropylene plate. Thirty μL per well of 37° C. dosing media (Dulbecco's modified eagle medium (DMEM) High Glucose, no calcium and no glutamine with 2% HI FBS) was added to the compound plate. Growth media was removed from the cell plate, and the cells were washed with DPBS. Twenty μL per well of compounds diluted in dosing media were transferred from the compound plate to the cell plate and the compounds were further diluted with an additional 15 μL of dosing media in the cell plate: the cell plate was incubated for two hours at 37° C. After two hours, STAT6 activity was stimulated with the addition of 5 μL per well of IL-13 (R&D Systems) in dosing media with a final concentration of 0.12 nM IL13. Cells were incubated at 37° C. for 4 hours to allow for reporter gene expression, then all media was removed from the plate. The cell plates were treated with assay buffer and Luciferase substrate from Nano-Glo Luciferase Assay Kit for 15 min and then measured for luminescence on an EnVision 2105 multilabel reader (PerkinElmer).
As to `COCC1CCN(C(=O)c2ccc(N3CCc4c(c(C(=O)NCc5ccc(NC(=O)N(C)C)cc5)nn4C(C)C)C3)nc2)C1` (racemic) [Example 194, rac-(R)-N-(4-(3,3-dimethylureido)benzyl)-1-isopropyl-5-(5-(3-(methoxymethyl)pyrrolidine-1-carbonyl)pyridin-2-yl)-4,5,6,7-tetrahydro-1H-pyrazolo[4,3-c]pyridine-3-carboxamide], the pEC50 (in general, −log10 of the EC50, conventionally taken in molar units) was 6.40.

In the case of `CC(C)n1nc(C(=O)NCc2ccc(NC(=O)N(C)C)cc2)c2c1CCN(c1ccc(C(=O)N3CCC(O)C3)cn1)C2` (racemic) [Example 198, rac-(R)-N-(4-(3,3-dimethylureido)benzyl)-5-(5-(3-hydroxypyrrolidine-1-carbonyl)pyridin-2-yl)-1-isopropyl-4,5,6,7-tetrahydro-1H-pyrazolo[4,3-c]pyridine-3-carboxamide], the pEC50 is 6.68.

Regarding `CC(C)n1nc(C(=O)NCc2ccc(NC(=O)N(C)C)cc2)c2c1CCN(c1ccc(C(=O)N3CCCC3CO)cn1)C2` (racemic) [Example 208, rac-(R)-N-(4-(3,3-dimethylureido)benzyl)-5-(5-(2-(hydroxymethyl)pyrrolidine-1-carbonyl)pyridin-2-yl)-1-isopropyl-4,5,6,7-tetrahydro-1H-pyrazolo[4,3-c]pyridine-3-carboxamide], the pEC50 was 6.27.

For the molecule `CC(C)n1nc(C(=O)NCc2ccc(NC(=O)N(C)C)cc2)c2c1CCN(c1ccc(C(=O)N3CCC(C)(O)C3)cn1)C2` (racemic) [Example 219, rac-(R)-N-(4-(3,3-dimethylureido)benzyl)-5-(5-(3-hydroxy-3-methylpyrrolidine-1-carbonyl)pyridin-2-yl)-1-isopropyl-4,5,6,7-tetrahydro-1H-pyrazolo[4,3-c]pyridine-3-carboxamide], the pEC50 was 5.88.

With `CC(C)n1nc(C(=O)NCc2ccc(NC(=O)N(C)C)cc2)c2c1CCN(c1ccc(C(=O)N3CCCC(O)C3)cn1)C2` (racemic) [Example 220, rac-(R)-N-(4-(3,3-dimethylureido)benzyl)-5-(5-(3-hydroxypiperidine-1-carbonyl)pyridin-2-yl)-1-isopropyl-4,5,6,7-tetrahydro-1H-pyrazolo[4,3-c]pyridine-3-carboxamide], the pEC50 is 6.47.

For `CNC(=O)C1CCCN1C(=O)c1ccc(N2CCc3c(c(C(=O)NCc4ccc(NC(=O)N(C)C)cc4)nn3C(C)C)C2)nc1` (racemic) [Example 245, rac-(R)-N-(4-(3,3-dimethylureido)benzyl)-1-isopropyl-5-(5-(2-(methylcarbamoyl)pyrrolidine-1-carbonyl)pyridin-2-yl)-4,5,6,7-tetrahydro-1H-pyrazolo[4,3-c]pyridine-3-carboxamide], the negative logarithm of the EC50 (pEC50) is 5.68.

Consider `CC(C)n1nc(C(=O)NCc2ccc(NC(=O)N(C)C)cc2)c2c1CCN(c1ccc(C(=O)N3C[C@@H]4OC(=O)N[C@@H]4C3)cn1)C2` (racemic) [Example 290, rac-N-(4-(3,3-dimethylureido)benzyl)-1-isopropyl-5-(5-((3aR,6aS)-2-oxohexahydro-2H-pyrrolo[3,4-d]oxazole-5-carbonyl)pyridin-2-yl)-4,5,6,7-tetrahydro-1H-pyrazolo[4,3-c]pyridine-3-carboxamide], for which the pEC50 is 5.85.

Staying with this test, now noted: STAT6 NanoLuc luciferase reporter, IL-13 stimulated HaCaT keratinocyte cells; read-out: Reporter EC50.
For the molecule `CC(C)n1nc(C(=O)NCc2ccc(NC(=O)N3C[C@H]4CC[C@@H]3C4)cc2)c2c1CCN(c1ccc(C(=O)N(C)C)cn1)C2` (racemic) [Example 143, rac-N-(4-((1R,4S)-2-azabicyclo[2.2.1]heptane-2-carboxamido)benzyl)-5-(5-(dimethylcarbamoyl)pyridin-2-yl)-1-isopropyl-4,5,6,7-tetrahydro-1H-pyrazolo[4,3-c]pyridine-3-carboxamide], the pEC50 is 7.96.

Consider `CC(C)n1nc(C(=O)NCc2ccc(NC(=O)N3CCC(C(F)F)C3)cc2)c2c1CCN(c1ccc(C(=O)N(C)C)cn1)C2` (racemic) [Example 145, rac-(R)-N-(4-(3-(difluoromethyl)pyrrolidine-1-carboxamido)benzyl)-5-(5-(dimethylcarbamoyl)pyridin-2-yl)-1-isopropyl-4,5,6,7-tetrahydro-1H-pyrazolo[4,3-c]pyridine-3-carboxamide], for which the pEC50 is 8.22.
